Test [1] deals with P. aeruginosa strain PAO1. Conditions: for final MIC of antibiotic: in the presence of subinhibitory concentrations of peptide P22, strain PAO1. As to the method:
For these experiments we used the wild type P. aeruginosa strain PAO1, whose mechanisms of antibiotic resistance have been extensively studied.
(§1) The ability of the peptides to induce bacterial sensitization to antibiotics was determined by a standard checkerboard titration method in 96-well polystyrene microtiter plates. For this purpose, serial dilutions of the two antimicrobial agents were mixed together in a microtiter plate so that each row contained a fixed amount of peptide and increasing amounts of the antibiotic. Inocula and growth conditions were identical to those described for MIC determination. To assess the synergy between antibiotics and peptides, the Fractional Inhibitory Concentration (FIC) index of each combination was calculated according to the following formula: [(A)/MICA] + [(P)/MICP] = FICA + FICP = FIC index, where MICA and MICP are the MICs of the antibiotic and peptide determined separately, and (A) and (P) are the MICs of the antibiotic and peptide when determined in combination. A given peptide-antibiotic combination was considered as synergistic if its FIC index was ≤ 0.5.

The subject of test [2] is Pseudomonas aeruginosa 4158-02. The test is described as follows: microbe, parasite or virus in culture. The note with it: for FIC index of peptide-novobiocin combination: checkerboard, peptides with MIC >250 μg/mL assigned 500 μg/mL, synergistic if ≤ 0.5; for synergistic activity with novobiocin, in words: subinhibitory peptide concentrations. As to the method:
First, we studied the ability of the peptides to sensitize P. aeruginosa to novobiocin, a hydrophobic antibiotic that cannot reach its intracellular target (gyrase) due to its inability to cross an intact outer membrane. […] Specifically, for a combination to be considered synergistic MIC of each agent when combined have to be at least 4-times lower than that of the corresponding agent alone.
as §1

For test [3], the system named is Pseudomonas aeruginosa. As to the kind of experiment: NPN uptake permeabilization assay. It is filed as cell-based. Conditions: peptide 50 μg/mL; NPN 10 μM; 5 mM HEPES pH 7.2 with 0.1% glucose; 37°C. As to the method:
In addition to this indirect method, we used a direct assay which measures the ability of peptides to promote the entry of a hydrophobic fluorescent probe (1-N-phenylnaphthylamine; NPN) into the cell membrane. This method identifies potent permeabilizers as those causing rapid NPN uptake leading to a high level of fluorescence.
The peptides permeabilizing activity on the bacterial cell envelope was assessed by quantifying the uptake of 1-N-phenylnaphthylamine (NPN). These experiments were performed essentially as described by Loh and collaborators with some modifications. Briefly, bacterial cells were grown in LB broth to mid-logarithmic phase, washed in 5 mM HEPES buffer (N-2-hydroxyethylpiperazine-N'-2-ethanesulfonic acid, pH 7.2) and resuspended at an OD600 of 0.5 in HEPES supplemented with 0.1% glucose. Freshly prepared bacterial suspensions were allowed to stabilize at 37°C for 10 min in quartz cuvettes. NPN was added at a final concentration of 10 μM and fluorescence was measured with a fluorometer (LS-50, Perkin-Elmer, Wellesley, MA, USA) using the time drive recording mode, slit widths of 2.5 nm and excitation and emission wavelengths of 350 nm and 420 nm, respectively. Peptides were added to the cuvette at a final concentration of 50 μg/mL.

For the next test, the system named is E. coli ATCC 25922. The test is described as follows: MIC/MBC in polypropylene vs. polystyrene microplates. It is filed as cell-based, Escherichia coli. Conditions: for MIC, polypropylene vs. polystyrene plates: broth microdilution. As to the method: It has been reported that cationic peptides have affinity for certain plastics (i.e. polystyrene; [20]), and as a consequence some authors disfavor the use of microplates made of such material. To investigate this potential interference, we studied whether the composition of the microplate (polypropylene vs. polystyrene) affected the antibacterial activity of selected peptides differing in length, hydrophobicity and net charge when tested on E. coli ATCC 25922.
The peptides MICs were determined in Mueller-Hinton (MH) medium (Difco Laboratories, Sparks, MD, USA) by the broth microdilution assay following recommendations of the Clinical and Laboratory Standards Institute. Briefly, serial twofold dilutions of the peptides were made in MH broth and dispensed into 96-well U-bottom polystyrene microtiter plates (TPP, Trasadingen, Switzerland). Bacterial cells grown for 18–20 h on agar plates were suspended in saline and the turbidity was adjusted to an O.D600 of 0.04 (1 × 10^7 CFU/mL, approximately). A hundred-fold dilution of this suspension prepared in MH broth was mixed 1:1 with 100 μL of each of the corresponding peptide dilution. Plates were incubated at 37°C without shaking for 18–20 h and the MIC was determined visually. Minimum bactericidal concentration (MBC) was determined by plating aliquots from those wells with no growth onto MH agar plates. MBC was defined as the lowest concentration of the peptide causing a 99.9% loss of viability with respect to the CFU/mL inoculated.
The peptides MICs were also determined using polypropylene labware by the conventional broth microdilution assay as described above. For these experiments, polypropylene 96 well round bottom plates (Greiner; Sigma-Aldrich, USA) were used. Both this and all the previous antimicrobial susceptibility assays were performed at least in duplicate.
A general note: Broth dilution looks for growth in wells or tubes with falling amounts of substance.

The test system of test [4] is Bordetella bronchiseptica. The test is described as follows: Bactericidal activity on resting bacteria in phosphate buffer with or without Ca2+/Mg2+. Conditions: 20 mM phosphate pH 7.0 (PB vs PB-CM), 18 hours, viable counts. It is filed as cell-based. As to the method:
(§2) All peptides were first screened for bactericidal activity under low ionic strength conditions on resting bacteria. For this purpose, we exposed bacterial cells in phosphate buffer (PB) to increasing concentrations of peptides and performed viable cell counts. Experimental designs similar to this are found in reports dealing with the biological characterization of peptides (see for instance). These experiments were performed on Escherichia coli, Pseudomonas aeruginosa and Bordetella bronchiseptica, three Gram-negative pathogens differing in sensitivity to APs.
(§3) The buffer used in the previous experiments was devoid of Ca^2+ and Mg^2+, two divalent cations known to contribute to outer membrane stabilization. […] However, the magnitude of the decrease varied markedly depending upon the peptide and strain.
(§4) The activity of the peptides was determined on non-growing bacteria by incubating bacterial suspensions containing number of CFU/mL identical to those used for the MIC assay (5 × 10^4 per microplate well) in low-ionic strength medium (20 mM phosphate, pH 7.0) with or without 1 mM Ca ^2+ and 1 mM Mg ^2+. After 18 hours, aliquots were plated onto MH agar to determine the presence of viable bacteria, as described above for the standard MBC assay.

Another test concerns Escherichia coli. Described as above. The class given is cell-based. The note with it: 20 mM phosphate pH 7.0 (PB vs PB-CM), 18 hours, viable counts. As to the method:
as §2, §3, §4

In test [5] the test system is Pseudomonas aeruginosa. Described as above. The class given is cell-based. The note with it: 20 mM phosphate pH 7.0 (PB vs PB-CM), 18 hours, viable counts. As to the method:
as §2, §3, §4

Where a SMILES comes first, the peptide text is derived from it.

Turning to `CC[C@H](C)[C@H](NC(=O)[C@H](CC(N)=O)NC(=O)[C@H](CCCNC(=N)N)NC(=O)[C@H](CCC(N)=O)NC(=O)[C@H](Cc1c[nH]c2ccccc12)NC(=O)[C@H](Cc1ccccc1)NC(=O)[C@@H](N)CCCNC(=N)N)C(=O)N[C@@H](CCCNC(=N)N)C(=O)N[C@@H](CCCCN)C(=O)N[C@@H](Cc1ccc(O)cc1)C(=O)N[C@@H](CCCNC(=N)N)C(=O)N[C@@H](CCCNC(=N)N)C(N)=O` [P 22] (H-RFWQRNIRKYRR-NH2), in test [1] (PAO1), the “FIC of P22-antibiotic combinations” value is reported as less than 0.5 and the “peptide MIC” value stood at 31.25 µg/mL. Consider `CC1(C)S[C@@H]2[C@H](NC(=O)[C@H](N)c3ccc(O)cc3)C(=O)N2[C@H]1C(=O)O` [amoxicillin], for which the “final MIC of antibiotic” value in test [1] amounted to 2 µg/mL.

Consider `CC1(C)S[C@@H]2[C@H](NC(=O)[C@H](N)c3ccccc3)C(=O)N2[C@H]1C(=O)O` [ampicillin], for which the “final MIC of antibiotic” value in test [1] came to 5 µg/mL. In the case of `CC[C@H]1OC(=O)[C@H](C)[C@@H](O[C@H]2C[C@@](C)(OC)[C@@H](O)[C@H](C)O2)[C@H](C)[C@@H](O[C@@H]2O[C@H](C)C[C@H](N(C)C)[C@H]2O)[C@](C)(O)C[C@@H](C)C(=O)[C@H](C)[C@@H](O)[C@]1(C)O` [erythromycin], the “final MIC of antibiotic” value in test [1] came out at 1 µg/mL. With `CCn1cc(C(=O)O)c(=O)c2ccc(C)nc21` [nalidixic acid], the “final MIC of antibiotic” value in test [1] came out at 2 µg/mL.

With `CO[C@@H]1[C@@H](OC(N)=O)[C@@H](O)[C@H](Oc2ccc3c(O)c(NC(=O)c4ccc(O)c(CC=C(C)C)c4)c(=O)oc3c2C)OC1(C)C` [novobiocin, reference compound], the MIC in test [2] (Pseudomonas aeruginosa, 415802, read-out: novobiocin MIC in the absence of peptides) was no less than 512 µg/mL. In test [1], the “final MIC of antibiotic” value was 5 µg/mL. Take `CO[C@H]1/C=C/O[C@@]2(C)Oc3c(C)c(O)c4c(O)c(c(/C=N/N5CCN(C)CC5)c(O)c4c3C2=O)NC(=O)/C(C)=C\C=C\[C@H](C)[C@H](O)[C@@H](C)[C@@H](O)[C@@H](C)[C@H](OC(C)=O)[C@@H]1C` [rifampicin]: the “final MIC of antibiotic” value in test [1] is 0.07 µg/mL.

Take “CFWQRNIRKVRC-NH2 [P 28, LF11 derived synthetic peptide, disulfide insertion, linear]”: the “classification by the novobiocin-sensitization technique” value (“classification” for short) in test [2] was “poor permeabilizers”. In the test on Pseudomonas aeruginosa [3], the “NPN uptake (fluorescence rise)” value is “slowest and less prominent NPN-uptakes”. As for “FWARNIRKVR-NH2 [P 46, LF11 derived synthetic peptide, amidated C-terminus]”, the “MBC, polypropylene vs. polystyrene plates” value with E. coli ATCC 25922 is reported as “improved its MBC when using polypropylene instead of polystyrene”. On to FWLRNIRKVR-NH2 [P 48], for which the “FIC index of peptide-novobiocin combination” value (“FIC index” below) in test [2] is on record as “low FIC indices”. In the case of FWQRNIRKVKKK-NH2 [P 10], in test [2], the “FIC index” value was “best compounds as judged by their FIC indices” and the “synergistic activity with novobiocin, in words” value was “synergistic activity at low concentrations”. Consider FWQRNIRKVKKKI-NH2 [P 14], for which the “FIC index” value in test [2] is “best compounds as judged by their FIC indices”. Moreover, in test [2] (peptide added at 6.25 μg/mL), the “decrease in novobiocin MIC (MIC ratio without/with peptide)” value amounted to 4 fold. In test [2] (peptide at 6.25 μg/mL), the “times the synergistic peptide concentration (6.25 μg/mL) is lower than the peptide's own MIC” value was “at least 40 times”. On to “FWQRNIRKVKKKK-NH2 [P 13, LF11 derived synthetic peptide, amidated C-terminus]”, for which, in the test on E. coli ATCC 25922, the “MBC, polypropylene vs. polystyrene plates” value is “not significantly affected by the type of material used” and the “MIC, polypropylene vs. polystyrene plates” value is listed as “MIC improved in polypropylene plates”.

For “FWQRNIRKVRRRR-NH2 [P 11, LF11 derived synthetic peptide, amidated C-terminus]”, in the test on E. coli ATCC 25922, the “MBC, polypropylene vs. polystyrene plates” value is “lower in polystyrene” and the “MIC, polypropylene vs. polystyrene plates” value is recorded as “same MIC in both materials”. With “FWQRNISKVR-NH2 [P 54, LF11 derived synthetic peptide, amidated C-terminus]”, the “classification” value in test [2] is “poor permeabilizers”. Further, the “NPN uptake (fluorescence rise)” value in the test with Pseudomonas aeruginosa [3] was “slowest and less prominent NPN-uptakes”. Take “FWQRNIYKVR-NH2 [P 41, LF11 derived synthetic peptide, amidated C-terminus]”: the “classification” value in test [2] is recorded as “poor permeabilizers”. In the test on Pseudomonas aeruginosa [3], the “NPN uptake (fluorescence rise)” value is “slowest and less prominent NPN-uptakes”. Turning to FWQRRIRKVRR-NH2 [P 15], in test [2], the “FIC index” value is “low FIC indices” and the “synergistic activity with novobiocin, in words” value was “synergistic activity at low concentrations”.

Take “FWRNIRKVR-NH2 [P 3, LF11 derived synthetic peptide, amidated C-terminus]”: the “classification” value in test [2] is listed as “poor permeabilizers”. Also, the “NPN uptake (fluorescence rise)” value in the test with Pseudomonas aeruginosa [3] is “slowest and less prominent NPN-uptakes”.

For Polymyxin B [PMB], the “MIC, polypropylene vs. polystyrene plates” value against E. coli ATCC 25922 is recorded as “higher activity (lower MIC value) when assayed in polypropylene”. Besides, the “effect of 1 mM Ca2+ and 1 mM Mg2+ on bactericidal activity” value (in test [4]; in the test with Escherichia coli; in the test on Pseudomonas aeruginosa [5]) was “not significantly affected by the divalent cations” in each case.
